Tests used:
Type in all cases: in vivo
[1] = system: redroot pigweed (Amaranthus retroflexus, AMARE); experiment: Pre-emerge test, greenhouse herbicide activity screening; conditions: phytotoxicity rating 0-100, 14 days after application
Method in brief: (§1)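 Visual ratings on a 0-100 scale (0 no damage, 100 all plants dead) were taken at 14 days after treatment. Rates of 15-1000 g ai/ha in acetone, 187 l/ha, were sprayed onto soil one day after planting (pre-emerge) or onto 2-3 leaf plants with 0.25% v/v surfactant (post-emerge).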

[2] = system: field corn (Zea mays L., var. Dekalb 535, CORN); experiment: Post-emerge test, crop safety; conditions: post-emerge, 14 days after application, rating scale 0-100
Method in brief: (§2)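 Compounds in acetone were track-sprayed at 187 l/ha, 15–1000 g ai/ha, onto sandy loam pots. Pre-emerge seeds were sown one day before spraying, with surface watering afterwards. Post-emerge plants were at the 2–3 leaf stage and sprayed with 0.25% v/v non-ionic surfactant. Injury was rated 0–100 at 14 days.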

[3] = system: upland rice (Oryza sp., var. Tebonnet, RICE); experiment: Post-emerge test, crop safety; conditions: post-emerge, 14 days after application, rating scale 0-100
Method in brief: as §2

[4] = system: field corn (Zea mays L., var. Dekalb 535, CORN); experiment: Pre-emerge test, crop safety; conditions: crop damage rating 0-100, 14 days after application
Method in brief: as §1

[5] = system: upland rice (Oryza sp., var. Tebonnet, RICE); experiment: Pre-emerge test, crop safety; conditions: crop damage rating 0-100, 14 days after application
Method in brief: as §1

[6] = system: ivyleaf morningglory (Ipomoea hederacea, IPOHE); experiment: Pre-emerge test, greenhouse herbicide activity screening; conditions: phytotoxicity rating 0-100, 14 days after application
Method in brief: as §2

[7] = system: lambsquarters (Chenopodium album, CHEAL); experiment: as above; conditions: phytotoxicity rating 0-100, 14 days after application
Method in brief: as §2

[8] = system: large crabgrass (Digitaria sanguinalis, DIGSA); experiment: as above; conditions: phytotoxicity rating 0-100, 14 days after application
Method in brief: as §2

[9] = system: johnsongrass (Sorghum halepense, SORHA); experiment: as above; conditions: phytotoxicity rating 0-100, 14 days after application
Method in brief: as §2

[10] = system: sicklepod (Cassia obtusifolia, CASOB); experiment: as above; conditions: phytotoxicity rating 0-100, 14 days after application
Method in brief: as §2

[11] = system: velvetleaf (Abutilon theophrasti, ABUTH); experiment: as above; conditions: phytotoxicity rating 0-100, 14 days after application
Method in brief: as §2

[12] = system: green foxtail (Setaria viridis, SETVI); experiment: as above; conditions: phytotoxicity rating 0-100, 14 days after application
Method in brief: as §2

[13] = system: barnyardgrass (Echinochloa crus-galli, ECHCG); experiment: as above; conditions: phytotoxicity rating 0-100, 14 days after application
Method in brief: as §2

[14] = system: common ragweed (Ambrosia artemisizfolia L., AMBEL); experiment: as above; conditions: phytotoxicity rating 0-100, 14 days after application
Method in brief: as §2

[15] = system: ivyleaf morningglory (Ipomoea hederacea, IPOHE); experiment: Post-emerge test, greenhouse herbicide activity screening; conditions: post-emerge, 14 days after application, rating scale 0-100
Method in brief: (§3)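 Fourteen days after spraying, crop and weed injury was graded visually from 0, no effect, to 100, every plant dead. Test substances were dissolved in acetone and applied at 15–1000 g ai/ha with a flat-fan nozzle. Application was either pre-emergence, one day after sowing, or post-emergence at the 2–3 leaf stage.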

[16] = system: lambsquarters (Chenopodium album, CHEAL); experiment: as above; conditions: post-emerge, 14 days after application, rating scale 0-100
Method in brief: as §3

[17] = system: large crabgrass (Digitaria sanguinalis, DIGSA); experiment: as above; conditions: post-emerge, 14 days after application, rating scale 0-100
Method in brief: as §3

[18] = system: johnsongrass (Sorghum halepense, SORHA); experiment: as above; conditions: post-emerge, 14 days after application, rating scale 0-100
Method in brief: as §3

[19] = system: sicklepod (Cassia obtusifolia, CASOB); experiment: as above; conditions: post-emerge, 14 days after application, rating scale 0-100
Method in brief: as §3

[20] = system: velvetleaf (Abutilon theophrasti, ABUTH); experiment: as above; conditions: post-emerge, 14 days after application, rating scale 0-100
Method in brief: as §3

[21] = system: green foxtail (Setaria viridis, SETVI); experiment: as above; conditions: post-emerge, 14 days after application, rating scale 0-100
Method in brief: as §3

[22] = system: barnyardgrass (Echinochloa crus-galli, ECHCG); experiment: as above; conditions: post-emerge, 14 days after application, rating scale 0-100
Method in brief: as §3

[23] = system: common ragweed (Ambrosia artemisizfolia L., AMBEL); experiment: as above; conditions: post-emerge, 14 days after application, rating scale 0-100
Method in brief: as §3

[24] = system: redroot pigweed (Amaranthus retroflexus, AMARE); experiment: as above; conditions: post-emerge, 14 days after application
Method in brief: as §3

## Cn1c(C(F)(F)F)cc(=O)n(-c2ccc(C(N)=S)cc2NC(=O)c2ccc3ccccc3c2)c1=O [2-205]
[1]; 63 g ai/ha
  Pre-emerge Herbicidal Activity AMARE: 100
[1]; 250 g ai/ha
  Pre-emerge Herbicidal Activity AMARE: 100
[2]; 63 g ai/ha
  phytotoxicity rating CORN (crop damage): 10
[2]; 250 g ai/ha
  phytotoxicity rating CORN (crop damage): 20
[3]; 63 g ai/ha
  phytotoxicity rating RICE (crop damage): 30
[3]; 250 g ai/ha
  phytotoxicity rating RICE (crop damage): 30
[4]; 63 g ai/ha
  Pre-emerge Herbicidal Activity CORN: 0
[4]; 250 g ai/ha
  Pre-emerge Herbicidal Activity CORN: 50
[5]; 63 g ai/ha
  Pre-emerge Herbicidal Activity RICE: 20
[5]; 250 g ai/ha
  Pre-emerge Herbicidal Activity RICE: 70
[6]; 63 g ai/ha
  Pre-emerge Herbicidal Activity IPOHE: 0
[6]; 250 g ai/ha
  Pre-emerge Herbicidal Activity IPOHE: 95
[7]; 63 g ai/ha
  Pre-emerge Herbicidal Activity CHEAL: 100
[7]; 250 g ai/ha
  Pre-emerge Herbicidal Activity CHEAL: 100
[8]; 63 g ai/ha
  Pre-emerge Herbicidal Activity DIGSA: 70
[8]; 250 g ai/ha
  Pre-emerge Herbicidal Activity DIGSA: 99
[9]; 63 g ai/ha
  Pre-emerge Herbicidal Activity SORHA: 40
[9]; 250 g ai/ha
  Pre-emerge Herbicidal Activity SORHA: 85
[10]; 63 g ai/ha
  Pre-emerge Herbicidal Activity CASOB: 0
[10]; 250 g ai/ha
  Pre-emerge Herbicidal Activity CASOB: 40
[11]; 63 g ai/ha
  Pre-emerge Herbicidal Activity ABUTH: 100
[11]; 250 g ai/ha
  Pre-emerge Herbicidal Activity ABUTH: 100
[12]; 63 g ai/ha
  Pre-emerge Herbicidal Activity SETVI: 70
[12]; 250 g ai/ha
  Pre-emerge Herbicidal Activity SETVI: 100
[13]; 63 g ai/ha
  Pre-emerge Herbicidal Activity ECHCG: 80
[13]; 250 g ai/ha
  Pre-emerge Herbicidal Activity ECHCG: 99
[14]; 63 g ai/ha
  Pre-emerge Herbicidal Activity AMBEL: 80
[14]; 250 g ai/ha
  Pre-emerge Herbicidal Activity AMBEL: 90
[15]; 63 g ai/ha
  phytotoxicity rating IPOHE: 100
[15]; 250 g ai/ha
  phytotoxicity rating IPOHE: 70
[16]; 63 g ai/ha
  phytotoxicity rating CHEAL: 70
[16]; 250 g ai/ha
  phytotoxicity rating CHEAL: 70
[17]; 63 g ai/ha
  phytotoxicity rating DIGSA: 10
[17]; 250 g ai/ha
  phytotoxicity rating DIGSA: 10
[18]; 63 g ai/ha
  phytotoxicity rating SORHA: 0
[18]; 250 g ai/ha
  phytotoxicity rating SORHA: 0
[19]; 63 g ai/ha
  phytotoxicity rating CASOB: 90
[19]; 250 g ai/ha
  phytotoxicity rating CASOB: 100
[20]; 63 g ai/ha
  phytotoxicity rating ABUTH: 100
[20]; 250 g ai/ha
  phytotoxicity rating ABUTH: 100
[21]; 63 g ai/ha
  phytotoxicity rating SETVI: 10
[21]; 250 g ai/ha
  phytotoxicity rating SETVI: 10
[22]; 63 g ai/ha
  phytotoxicity rating ECHCG: 0
[22]; 250 g ai/ha
  phytotoxicity rating ECHCG: 0
[23]; 63 g ai/ha
  phytotoxicity rating AMBEL: 70
[23]; 250 g ai/ha
  phytotoxicity rating AMBEL: 100
[24]; 63 g ai/ha, rating scale 0-100 (0 no damage, 100 complete death)
  phytotoxicity rating AMARE: 90
[24]; 250 g ai/ha, rating scale 0-100
  phytotoxicity rating AMARE: 40

— US6355799B1, “Substituted benzene compounds, process for their preparation, and herbicidal and defoliant compositions containing them” (ISK Americas Incorporated, priority 1997, dated 2002)
